Target: T1, human β3 adrenergic receptor (Homo sapiens, UniProt P13945)
T1 construct: expressed in transfected cells; host or cells: DXB-11 Chinese hamster ovary (CHO) cell line, stably transfected (phd expression vector)
Experiment: whole cell receptor coupled c-AMP assay, human β3 receptor in CHO cells (EC50, Emax relative to isoproterenol)
Type: cell-based
Details: Emax ± standard error of the mean; average of at least 3 runs except where n = 1; compound tested in the isolated form listed
Summary of the method: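 Stably transfected DXB-11 CHO cells (20,000/well) were exposed to compound for 20 min at 37 °C in HBSS/HEPES buffer with 1 mM IBMX, pH 7.4. cAMP was measured by SPA. EC50 came from a four-parameter logistic fit, and Emax is the maximal response as a percentage of isoproterenol's.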

T1 sequence (P13945 whole entry): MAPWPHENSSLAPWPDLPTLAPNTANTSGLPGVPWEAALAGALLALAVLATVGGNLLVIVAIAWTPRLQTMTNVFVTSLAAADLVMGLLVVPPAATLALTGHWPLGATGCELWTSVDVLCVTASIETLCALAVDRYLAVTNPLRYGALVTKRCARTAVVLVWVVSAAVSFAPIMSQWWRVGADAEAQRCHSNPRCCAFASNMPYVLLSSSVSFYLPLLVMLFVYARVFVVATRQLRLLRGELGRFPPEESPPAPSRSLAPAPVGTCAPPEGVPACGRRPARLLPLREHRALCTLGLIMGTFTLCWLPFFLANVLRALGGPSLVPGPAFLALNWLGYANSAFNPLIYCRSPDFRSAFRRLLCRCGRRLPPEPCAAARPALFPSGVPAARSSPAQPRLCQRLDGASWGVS

Compound | Emax (%) ± SEM [%]
CC(C)(Cc1ccc(Oc2ccc(C#N)cc2Cl)cc1)NC[C@H](O)COc1ccccc1-c1cccs1.O=C(O)C(F)(F)F [Example 161] | 52.5 ± 4.7
CC(C)(Cc1ccc(Oc2ccc(C#N)cc2Cl)cc1)NC[C@H](O)COc1ccccc1-c1ccno1.O=C(O)C(F)(F)F [Example 163] | 44.6 ± 4.3
CC(C)(Cc1ccc(Oc2ccc(C(N)=O)cc2Cl)cc1)NC[C@H](O)COc1ccccc1-c1cccs1.O=C(O)C(F)(F)F [Example 164] | 67.3 ± 3.5
CC(C)(Cc1ccc(Oc2ccc(C(N)=O)cc2Cl)cc1)NC[C@H](O)COc1ccccc1-c1nccs1.O=C(O)C(F)(F)F [Example 165] | 49.7 ± 3.9
CC(C)(Cc1ccc(Oc2ccc(C(N)=O)cc2Cl)cc1)NC[C@H](O)COc1ccccc1-c1ccno1.O=C(O)C(F)(F)F [Example 166] | 58.3 ± 9.5
CC(C)(Cc1ccc(Oc2ccc(Cl)cn2)cc1)NC[C@H](O)COc1ccccc1-c1cccs1.O=C(O)C(F)(F)F [Example 167] | 57.3 ± 3.5
CC(C)(Cc1ccc(Oc2ccc(Cl)cn2)cc1)NC[C@H](O)COc1ccccc1-c1nccs1.O=C(O)C(F)(F)F [Example 168] | 56.1 ± 4.5
CC(C)(Cc1ccc(Oc2ccc(Cl)cn2)cc1)NC[C@H](O)COc1ccccc1-c1ccno1.O=C(O)C(F)(F)F [Example 169] | 43.3 ± 6.8
CC(C)(Cc1ccc(Oc2ccc(C(F)(F)F)cc2Cl)cc1)NC[C@H](O)COc1ccccc1-c1cccs1.O=C(O)C(F)(F)F [Example 170] | 55.0 ± 4.8
CC(C)(Cc1ccc(Oc2ccc(C(F)(F)F)cc2Cl)cc1)NC[C@H](O)COc1ccccc1-c1nccs1.O=C(O)C(F)(F)F [Example 171] | 47.9 ± 6.5
CC(C)(Cc1ccc(Oc2ccc(C(F)(F)F)cc2Cl)cc1)NC[C@H](O)COc1ccccc1-c1ccno1.O=C(O)C(F)(F)F [Example 172] | 40.4 ± 8.8
CC(C)(Cc1ccc(Oc2ncc(Cl)cc2Cl)cc1)NC[C@H](O)COc1ccccc1-c1cccs1.O=C(O)C(F)(F)F [Example 173] | 87.9 ± 4.5
CC(C)(Cc1ccc(Oc2ncc(Cl)cc2Cl)cc1)NC[C@H](O)COc1ccccc1-c1ccno1.O=C(O)C(F)(F)F [Example 174] | 59.3 ± 3.2
CC(C)(Cc1ccc(Oc2cccc(Cl)n2)cc1)NC[C@H](O)COc1ccccc1-c1cccs1.O=C(O)C(F)(F)F [Example 175] | 67.4 ± 3.9
CC(C)(Cc1ccc(Oc2cccc(Cl)n2)cc1)NC[C@H](O)COc1ccccc1-c1nccs1.O=C(O)C(F)(F)F [Example 176] | 57.0 ± 7.6
CC(C)(Cc1ccc(Oc2cccc(Cl)n2)cc1)NC[C@H](O)COc1ccccc1-c1ccno1.O=C(O)C(F)(F)F [Example 177] | 46.0 ± 1.7
CC(C)(Cc1ccc(Oc2ncccc2Cl)cc1)NC[C@H](O)COc1ccccc1-c1cccs1.O=C(O)C(F)(F)F [Example 178] | 64.4 ± 5.2
CC(C)(Cc1ccc(Oc2ncccc2Cl)cc1)NC[C@H](O)COc1ccccc1-c1nccs1.O=C(O)C(F)(F)F [Example 179] | 62.2 ± 8.6
CC(C)(Cc1ccc(Oc2ncccc2Cl)cc1)NC[C@H](O)COc1ccccc1-c1ccno1.O=C(O)C(F)(F)F [Example 180] | 52.4 ± 6.9

Compound | Emax (%) ± SEM [%]
CC(C)(Cc1ccc(Oc2ccc(S(C)(=O)=O)cc2Cl)cc1)NC[C@H](O)COc1ccccc1-c1cccs1.O=C(O)C(F)(F)F [Example 181] | 66.2 ± 1.6
CC(C)(Cc1ccc(Oc2ccc(S(C)(=O)=O)cc2Cl)cc1)NC[C@H](O)COc1ccccc1-c1nccs1.O=C(O)C(F)(F)F [Example 182] | 57.6 ± 7.1
CC(C)(Cc1ccc(Oc2ccc(S(C)(=O)=O)cc2Cl)cc1)NC[C@H](O)COc1ccccc1-c1ccno1.O=C(O)C(F)(F)F [Example 183] | 53.7 ± 4.3
CCOC(=O)c1ccc(Oc2ccc(CC(C)(C)NC[C@H](O)COc3ccccc3-c3cccs3)cc2)c(F)c1.O=C(O)C(F)(F)F [Example 184] | 64.1 ± 3.2
CCOC(=O)c1ccc(Oc2ccc(CC(C)(C)NC[C@H](O)COc3ccccc3-c3nccs3)cc2)c(F)c1.O=C(O)C(F)(F)F [Example 185] | 45.1 ± 2.6
CCOC(=O)c1ccc(Oc2ccc(CC(C)(C)NC[C@H](O)COc3ccccc3-c3ccno3)cc2)c(F)c1.O=C(O)C(F)(F)F [Example 186] | 41.1 ± 8.2
CC(C)(Cc1ccc(Oc2ccc(C#N)cc2F)cc1)NC[C@H](O)COc1ccccc1-c1cccs1.O=C(O)C(F)(F)F [Example 187] | 45.1 ± 1.5
CC(C)(Cc1ccc(Oc2ccc(C#N)cc2F)cc1)NC[C@H](O)COc1ccccc1-c1nccs1.O=C(O)C(F)(F)F [Example 188] | 38.3 ± 5.7
CC(C)(Cc1ccc(Oc2ccc(C#N)cc2F)cc1)NC[C@H](O)COc1ccccc1-c1ccno1.O=C(O)C(F)(F)F [Example 189] | 35.1 ± 5.2
CC(C)(Cc1ccc(Oc2ccc(C(N)=O)cc2F)cc1)NC[C@H](O)COc1ccccc1-c1cccs1.O=C(O)C(F)(F)F [Example 190] | 54.5 ± 3.3
CC(C)(Cc1ccc(Oc2ccc(C(N)=O)cc2F)cc1)NC[C@H](O)COc1ccccc1-c1nccs1.O=C(O)C(F)(F)F [Example 191] | 49.5 ± 1.5
CC(C)(Cc1ccc(Oc2ccc(C(N)=O)cc2F)cc1)NC[C@H](O)COc1ccccc1-c1ccno1.O=C(O)C(F)(F)F [Example 192] | 40.3 ± 6.9
CC(C)(Cc1ccc(Oc2ccc(C(F)(F)F)cn2)cc1)NC[C@H](O)COc1ccccc1-c1cccs1.O=C(O)C(F)(F)F [Example 193] | 73.5 ± 3.2
CC(C)(Cc1ccc(Oc2ccc(C(F)(F)F)cn2)cc1)NC[C@H](O)COc1ccccc1-c1nccs1.O=C(O)C(F)(F)F [Example 194] | 56.6 ± 4.2
CC(C)(Cc1ccc(Oc2ccc(C(F)(F)F)cn2)cc1)NC[C@H](O)COc1ccccc1-c1ccno1.O=C(O)C(F)(F)F [Example 195] | 48.1 ± 3.8
CC(C)(Cc1ccc(Oc2cccnc2C(N)=O)cc1)NC[C@H](O)COc1ccccc1-c1cccs1.O=C(O)C(F)(F)F [Example 196] | 74.4 ± 3.3
CC(C)(Cc1ccc(Oc2cccnc2C(N)=O)cc1)NC[C@H](O)COc1ccccc1-c1nccs1.O=C(O)C(F)(F)F [Example 197] | 67.7 ± 2.7
CC(C)(Cc1ccc(Oc2cccnc2C(N)=O)cc1)NC[C@H](O)COc1ccccc1-c1ccno1.O=C(O)C(F)(F)F [Example 198] | 48.1 ± 6.5
CC(C)(Cc1ccc(Oc2cccnc2C(N)=O)cc1)NC[C@H](O)COc1ccccc1-c1ccns1.O=C(O)C(F)(F)F [Example 199] | 83.0 ± 4.0

Compound | Emax (%) ± SEM [%]
CC(C)(Cc1ccc(Oc2ccncc2)cc1)NC[C@H](O)COc1ccccc1-c1cccs1.O=C(O)C(F)(F)F [Example 202] | 59.1 ± 6.0
CC(C)(Cc1ccc(Oc2ccncc2)cc1)NC[C@H](O)COc1ccccc1-c1nccs1.O=C(O)C(F)(F)F [Example 203] | 57.8 ± 3.1
CCOC(=O)c1ccc(Oc2ccc(CC(C)(C)NC[C@H](O)COc3ccccc3-c3cccs3)cc2)c(Cl)c1.O=C(O)C(F)(F)F [Example 204] | 67.6 ± 4.0
CC(C)(Cc1ccc(Oc2ccc(C(N)=O)nc2)cc1)NC[C@H](O)COc1ccccc1-c1cccs1.O=C(O)C(F)(F)F [Example 205] | 70.3 ± 0.3
CC(C)(Cc1ccc(Oc2ccc(C(N)=O)nc2)cc1)NC[C@H](O)COc1ccccc1-c1nccs1.O=C(O)C(F)(F)F [Example 206] | 64.2 ± 8.1
CC(C)(Cc1ccc(Oc2ccc(C(N)=O)nc2)cc1)NC[C@H](O)COc1ccccc1-c1ccns1.O=C(O)C(F)(F)F [Example 207] | 70.5 ± 4.9
CC(C)(Cc1ccc(Oc2ccc(Cl)nn2)cc1)NC[C@H](O)COc1ccccc1-c1cccs1.O=C(O)C(F)(F)F [Example 208] | 92.4 ± 7.3
CC(C)(Cc1ccc(Oc2ccc(Cl)nn2)cc1)NC[C@H](O)COc1ccccc1-c1nccs1.O=C(O)C(F)(F)F [Example 209] | 88.3 ± 8.0
CC(C)(Cc1ccc(Oc2ccc(Cl)nn2)cc1)NC[C@H](O)COc1ccccc1-c1ccno1.O=C(O)C(F)(F)F [Example 210] | 89.1 ± 2.7
CC(C)(Cc1ccc(Oc2ccc(Cl)nn2)cc1)NC[C@H](O)COc1ccccc1-c1ccns1.O=C(O)C(F)(F)F [Example 211] | 88.5 ± 9.3
CC(C)(Cc1ccc(Oc2ccccc2C#N)cc1)NC[C@H](O)COc1ccccc1-c1ccno1.O=C(O)C(F)(F)F [Example 212] | 68.9 ± 3.1
CC(C)(Cc1ccc(Oc2ccccc2C#N)cc1)NC[C@H](O)COc1ccccc1-c1ccns1.O=C(O)C(F)(F)F [Example 213] | 63.0 ± 3.2
CC(C)(Cc1ccc(Oc2ccccc2C#N)cc1)NC[C@H](O)COc1ccc(F)cc1-c1cccs1.O=C(O)C(F)(F)F [Example 214] | 42.4 ± 9.4
CC(C)(Cc1ccc(Oc2cccc(Cl)c2C#N)cc1)NC[C@H](O)COc1ccccc1-c1cccs1.O=C(O)C(F)(F)F [Example 216] | 85.4 ± 4.9
CC(C)(Cc1ccc(Oc2cccc(Cl)c2C#N)cc1)NC[C@H](O)COc1ccccc1-c1ccno1.O=C(O)C(F)(F)F [Example 217] | 76.2 ± 8.3
CC(C)(Cc1ccc(Oc2cccc(Cl)c2C(N)=O)cc1)NC[C@H](O)COc1ccccc1-c1cccs1.O=C(O)C(F)(F)F [Example 218] | 76.5 ± 1.7
CC(C)(Cc1ccc(Oc2cccc(Cl)c2C(N)=O)cc1)NC[C@H](O)COc1ccccc1-c1ccno1.O=C(O)C(F)(F)F [Example 219] | 50.4 ± 6.3
CC(C)(Cc1ccc(Oc2ccc(C#N)nc2)cc1)NC[C@H](O)COc1ccccc1-c1cccs1.O=C(O)C(F)(F)F [Example 220] | 56.0 ± 2.9

From patent US6730792B2, “β3 adrenergic agonists” (Eli Lilly and Company, priority 2000, dated 2004)
